Measurements: patent US8912121B2, “Herbicidal compositions comprising 4-amino-3-chloro-5-fluoro-6-(4-chloro-2-fluoro-3-methoxyphenyl)pyridine-2-carboxylic acid or a derivative thereof and certain PS II inhibitors” (Dow Agrosciences LLC, priority 2012, dated 2014)

Tested on: SCPMA (Schoenoplectus maritimus, sea clubrush)
Assay: In-water applied mixtures, transplanted paddy rice, greenhouse
Format: in vivo, Schoenoplectus maritimus (L.) Lye
Procedure: Weed seeds or nutlets of the desired test plant species were planted in puddled soil (mud) prepared by mixing a shredded, non-sterilized mineral soil (50.5 percent silt, 25.5 percent clay, and 24 percent sand, with a pH of about 7.6 and an organic matter content of about 2.9 percent) and water at a 1:1 volumetric ratio. The prepared mud was dispensed in 365 mL aliquots into 16-ounce (oz.) non-perforated plastic pots with a surface area of 86.59 square centimeters (cm^2) leaving a headspace of 3 centimeters (cm) in each pot Mud was allowed to dry overnight prior to planting or transplanting. Rice seeds were planted in Sun Gro MetroMix® 306 planting mixture, which typically has a pH of 6.0 to 6.8 and an organic matter content of about 30 percent, in plastic plug trays. Seedlings at the second or third leaf stage of growth were transplanted into 840 mL of mud contained in 32-oz. non-perforated plastic pots with a surface area of 86.59 cm^2 4 days prior to herbicide application. The paddy was created by filling the headspace of the pots with 2.5 to 3 cm of water. When required to ensure good germination and healthy plants, a fungicide treatment and/or other chemical or physical treatment was applied. The plants were grown for 4-22 days in a greenhouse with an approximate 14 h photoperiod which was maintained at about 29° C during the day and 26° C. during the night. Nutrients were added as Osmocote® (19:6:12, N:P:K+ minor nutrients) at 2 g per 16-oz. pot and 4 g per 32-oz. pot. Water was added on a regular basis to maintain the paddy flood, and supplemental lighting was provided with overhead metal halide 1000-Watt lamps as necessary. The plants were employed for testing when they reached the first through fourth true leaf stage.
Treatments consisted of the acid or esters of 4-amino-3-chloro-5-fluoro-6-(4-chloro-2-fluoro-3-methoxy-phenyl)pyridine-2-carboxylic acid (compound A) each formulated as an SC (suspension concentrate) and various herbicidal components alone and in combination. Forms of compound A were applied on an acid equivalent basis.
Other herbicidal components were applied on an active ingredient basis and included photosystem II (PSII)-inhibits propanil formulated as […] bentazon-sodium formulated as Basagran®, and simetryne (technical grade material).
Treatment requirements for each compound or herbicidal component were calculated based upon the rates being tested, the concentration of active ingredient or acid equivalent in the formulation, an application volume of 2 mL per component per pot, and an application area of 86.59 cm^2 per pot.
For formulated compounds, a measured amount was placed in an individual 100 or 200 mL glass vial and was dissolved in a volume of 1.25% (v/v) Agri-Dex® crop oil concentrate to obtain application solutions.
For technical grade compounds, a weighed amount was placed in an individual 100 to 200 mL glass vial and was dissolved in a volume of acetone to obtain concentrated stock solutions. […] The concentrated stock solutions obtained were diluted with an equivalent volume of an aqueous mixture containing 2.5% (v/v) crop oil concentrate so that the final application solutions contained 1.25% (v/v) crop oil concentrate.
Applications were made by injecting with a pipetter appropriate amounts of the application solutions, individually and sequentially, into the aqueous layer of the paddy. Control plants were treated in the same manner with the solvent blank. Applications were made so that all treated plant material received the same concentrations of acetone and crop oil concentrate.
The treated plants and control plants were placed in a greenhouse as described above and water was added as needed to maintain a paddy flood. After approximately 3 weeks the condition of the test plants as compared with that of the untreated plants was determined visually and scored on a scale of 0 to 100 percent where 0 corresponds to no injury or growth inhibition and 100 corresponds to complete kill. […]

Structure (SMILES)	Visual Weed Control (%) Obs (8.75 g ae/ha, 21 DAA) [%]	Visual Weed Control (%) Obs (17.5 g ae/ha, 21 DAA) [%]	Visual Weed Control (%) Obs (35 g ae/ha, 21 DAA) [%]	Visual Weed Control (%) Obs (42.4 g ae/ha, 20 DAA) [%]	Visual Weed Control (%) Obs (84.8 g ae/ha, 20 DAA) [%]	Visual Weed Control (%) Obs (1680 g ai/ha, 21 DAA) [%]	Visual Weed Control (%) Obs (3360 g ai/ha, 21 DAA) [%]	Visual Weed Control (%) Obs (35 g ae/ha, 20 DAA) [%]	Visual Weed Control (%) Obs (70 g ae/ha, 20 DAA) [%]
COc1c(Cl)ccc(-c2nc(C(=O)O)c(Cl)c(N)c2F)c1F [Compound A Acid, 4-amino-3-chloro-6-(4-chloro-2-fluoro-3-methoxyphenyl)-5-fluoropyridine-2-carboxylic acid]	0	0	0	0	0	–	–	–	–
CCC(=O)Nc1ccc(Cl)c(Cl)c1 [Propanil, N-(3,4-dichlorophenyl)propanamide, reference compound]	–	–	–	–	–	50	90	–	–
COc1c(Cl)ccc(-c2nc(C(=O)OCc3ccccc3)c(Cl)c(N)c2F)c1F [Compound A Benzyl Ester, benzyl ester of 4-amino-3-chloro-5-fluoro-6-(4-chloro-2-fluoro-3-methoxy-phenyl)pyridine-2-carboxylic acid]	0	0	0	–	–	–	–	0	0
